# In patent US6906205B2, “Spiro and dispiro 1,2,4-trioxolane antimalarials” (Medicines for Malaria Venture MMV, priority 2002, dated 2005):
# Read-outs that look alike come from different tables or passages of the source.
# Tests used:
# [1] = assay type: physicochemical
# From the text: It is presumed that thermal decomposition of these trioxolanes was initiated by formation of a 1,5 diradical produced by homolytic cleavage of the peroxide bond of the trioxolane ring.
# [2] = Rane test, single 640 mg/kg doses in mice; assay type: in vivo
# P. falciparum = assay: in vitro potency against P. falciparum (strain not stated); assay type: cell-based; conditions: Plasmodium falciparum
# [3] = tested on: P. falciparum NF54 strain (sensitive to standard antimalarials); assay: semiautomated microdilution assay, [3H]-hypoxanthine incorporation, NF54 strain; assay type: cell-based, Plasmodium falciparum
# In short: (§1)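 Logit regression analysis was used to estimate IC50 values. Parasites were intraerythrocytic forms from asynchronous stock cultures, and compounds were tested by semiautomated microdilution.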
# neuroblastoma cell line = assay: toxicity in a neuroblastoma cell line; assay type: cell-based
# [4] = tested on: Schistosoma mansoni adult schistosomes (49-day-old); assay: effect on adult schistosomes (49-day-old) in mice; assay type: in vivo; conditions: for adult worms at day 49, per os 400 mg/kg, DEAD WORM (%) / % reduction of adult worms growth at day 49 after per os application of 400 mg/kg, TWR (%): single 400 mg/kg per os; for adult worms at day 49, per os 600 mg/kg, DEAD WORM (%) / % reduction of adult worms growth at day 49 after per os application of 600 mg/kg, TWR (%): single 600 mg/kg per os
# Description: Mice were infected with 100 Schistosoma mansoni cercariae […]. Each group was treated per os with OZ compounds at single doses of 200, 400, and 600 mg/kg. […] All groups were killed 4 weeks after treatment and the liver and intestine were removed and separated. The liver and intestine were compressed and alive male and female worms could be seen and counted.
# [5] = tested on: ANKA strain of P. berghei; assay: single dose STI in vivo screen in infected mice; design: species or system Plasmodium berghei
# In short: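 Groups of 3-5 Moro SPF or NMRI mice infected with the ANKA strain of P. berghei received a single dose of trioxolane on day one post-infection. The compound was given in 3% ethanol and 7% Tween 80 or in SSV (0.5% w/v CMC, 0.5% v/v benzyl alcohol, 0.4% v/v Tween 80, 0.9% w/v sodium chloride in water). Antimalarial activity was scored as percent reduction in parasitemia on day three and as survival time versus untreated controls. Survival to day 30 counted as cure.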
# [6] = tested on: ANKA strain of Plasmodium berghei; assay: single dose ED50/ED90/ED99 determinations in infected mice; assay type: in vivo; conditions: single dose po in SSV, mice, percent reduction in parasitemia on day three post-infection
# In short: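 Mice (Moro SPF or NMRI, n=3 per group) infected with P. berghei ANKA received a single dose on day 1 post-infection, vehicle 0.5% CMC/0.5% benzyl alcohol/0.4% Tween 80/0.9% NaCl in water. Read-out is percent reduction in parasitemia on day 3; ED values by nonlinear fitting.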
# [7] = tested on: P. falciparum K1 strain (Thailand resistant to chloroquine); assay: semiautomated microdilution assay, [3H]-hypoxanthine incorporation, K1 strain; assay type: cell-based, Plasmodium falciparum; conditions: K1 strain, 72 h incubation
# In short: as §1
# [8] = tested on: Schistosoma mansoni adult schistosomes (49-day-old); assay: effect on adult schistosomes (49-day-old) in mice; assay type: in vivo; conditions: 1 × 600 mg/kg sc.
# dosing in dogs = assay type: in vivo; conditions: dog; for IV t1/2 (10 mg/kg): IV 10 mg/kg; for Oral t1/2 (10 mg/kg) / Oral Bioavailability 10 mg/kg: oral 10 mg/kg; for Oral Bioavailability 10 mg/kg / Oral Bioavailability 25 mg/kg: OZ 279, OZ 256, OZ 209 values flagged (V); for Oral Bioavailability 25 mg/kg: oral 25 mg/kg
# From the text: (§2) Artesunate is listed as a reference compound.
# [9] = tested on: Schistosoma mansoni 21-day-old schistosomules; assay: effect on 21-day-old schistosomules in mice; assay type: in vivo; conditions: single 200 mg/kg per os, female mice
# Description: All groups were killed 4 weeks after treatment and the liver and intestine were removed and separated. The liver and intestine were compressed and alive male and female worms could be seen and counted. The effect of the compounds was evaluated by mean total and female worm burden.
# dosing in rats = assay type: in vivo; conditions: rat; for IV t1/2 (10 mg/kg): IV 10 mg/kg; for Oral Bioavailability 10 mg/kg: oral 10 mg/kg; for Oral Bioavailability 25 mg/kg / Oral t1/2 (25 mg/kg): oral 25 mg/kg
# From the text: as §2
# [10] = tested on: parasitemia (malaria infection); assay: onset of action and recrudescence experiments; assay type: in vivo; conditions: single 100 mg/kg po (SSV) on day +3 post-infection; recrudescence = >5% parasitemia; followed up to 60 days; (n/5) = animals
# Description: The onset of drug action was determined after a single fixed dose of 100 mg/kg (SSV vehicle) po to groups of five animals on day +3 post-infection (day 0).
SMILES,toxicity at single 640 mg/kg doses in mice in the Rane test [2],IC50 (P. falciparum) [ng/mL],toxicity in a neuroblastoma cell line (neuroblastoma cell line),"adult worms at day 49, per os 400 mg/kg, DEAD WORM (%) [4]","adult worms at day 49, per os 600 mg/kg, DEAD WORM (%) [4] [%]",ED90 [6] [mg/kg],ED99 [6] [mg/kg],"% reduction of adult worms growth, 1 × 600 sc., TWR (%) [8] [%]","adult worms, 1 × 600 sc., DEAD WORM (%) [8] [%]","% reduction of adult worms growth at day 49 after per os application of 400 mg/kg, TWR (%) [4]","% reduction of adult worms growth at day 49 after per os application of 600 mg/kg, TWR (%) [4] [%]",IV t1/2 (10 mg/kg) (dosing in dogs) [h],Oral t1/2 (10 mg/kg) (dosing in dogs) [h],Oral Bioavailability 10 mg/kg (dosing in dogs) [%],Oral Bioavailability 25 mg/kg (dosing in dogs) [%],"% reduction of schistosomule growth at day 21 after per os application of 200 mg/kg, FWR (%) [9] [%]","% reduction of schistosomule growth at day 21 after per os application of 200 mg/kg, TWR (%) [9] [%]",Survival (days) 10 mg/kg SSV po ([5]; single 10 mg/kg po in SSV) [days],IV t1/2 (10 mg/kg) (dosing in rats) [h],Oral Bioavailability 10 mg/kg (dosing in rats) [%],other results
"C[C@@H]1CC[C@H]2[C@@H](C)C(=O)O[C@@H]3O[C@@]4(C)CC[C@@H]1[C@]32OO4 [Artemisinin, artemisinin]",–,–,–,–,–,–,–,–,–,–,–,–,–,–,–,–,–,–,–,–,"Tm, dec (DSC thermal stability) [1]: 181 °C"
C1CCC2(CC1)OOC1(O2)C2CC3CC(C2)CC1C3 (centres unmarked) [OZ03],no toxicity,1 to 5,no toxicity,–,–,–,–,–,–,–,–,–,–,–,–,–,–,–,–,–,"IC50 ([3]; Plasmodium falciparum, NF54, 72 h, read-out: IC50 (ng/ml) NF54): 1.6 ng/mL"
O=C1CCC2(CC1)OOC1(O2)C2CC3CC(C2)CC1C3 (centres unmarked) [OZ05],no toxicity,1 to 5,no toxicity,32%,58,12,15,–,–,–,–,–,–,–,–,–,–,–,–,–,"adult worms at day 49, per os 200 mg/kg, DEAD WORM (%) ([4]; single 200 mg/kg per os): 12%; Activity (%) po ([5]; percent reduction in parasitemia day 3 post-infection, single 10 mg/kg po in 3% ethanol and 7% Tween 80, mice): 94%; Activity (%) sc ([5]; percent reduction in parasitemia day 3 post-infection, single 10 mg/kg sc in 3% ethanol and 7% Tween 80, mice): 99.7%; Activity (%) SSVpo ([5]; percent reduction in parasitemia day 3 post-infection, single po dose in standard suspending vehicle (SSV), mice): 74%; Survival (days) po ([5]; single 10 mg/kg po in 3% ethanol and 7% Tween 80, untreated control 5.6 ± 0.3): 7.1 days; Survival (days) sc ([5]; single 10 mg/kg sc in 3% ethanol and 7% Tween 80, untreated control 5.6 ± 0.3): 8.6 days; Survival (days) SSVpo ([5]; single po dose in SSV, untreated control 5.6 ± 0.3): 6.2 days; ED50 ([6]; Plasmodium berghei, read-out: ED50): 8.7 mg/kg; IC50 ([7]; Plasmodium falciparum, read-out: IC50 (ng/ml) K1): 0.19 ng/mL"
CC(C)(N)CNC(=O)C[C@H]1CC[C@]2(CC1)OO[C@]1(O2)C2CC3CC(C2)CC1C3 [OZ277],–,–,–,0/0%,14,2.0,4.4,39,17,0/0%,17,1.58,2.468,87.9,96.1,92,91,9.3,1.29,36.9,"Activity (%) 3 mg/kg SSV po ([5]; percent reduction in parasitemia day 3 post-infection, single 3 mg/kg po in SSV): 99.28%; Activity (%) 10 mg/kg SSV po ([5]; percent reduction in parasitemia day 3 post-infection, single 10 mg/kg po in SSV): 99.98%; Oral Bioavailability 25 mg/kg (dosing in rats): 44.1%; Oral t1/2 (25 mg/kg) (dosing in rats): 1.51 h; ED50 [6]: 0.78 mg/kg; Time of Recrudescence [10]: 13.0 days"
Cc1ccc(S(=O)(=O)O)cc1.O=C(C[C@H]1CC[C@]2(CC1)OO[C@]1(O2)C2CC3CC(C2)CC1C3)N1CCNCC1 [OZ279],–,–,–,12%,20,1.8,3.9,21,27,0%,33,2.958,3.255,32.8,55.7,88,86,9.3,1.675,37.2,"Survival (days) 3 mg/kg SSV po ([5]; single 3 mg/kg po in SSV): 8.4 days; Oral Bioavailability 25 mg/kg (dosing in rats): 71.1%; Oral t1/2 (25 mg/kg) (dosing in rats): 2.78 h; ED50 [6]: 0.63 mg/kg; Time of Recrudescence [10]: 15.0 days; IC50 (ng/ml) NF54 ([3]; NF54 strain, 72 h incubation): 0.24 ng/mL; IC50 (ng/ml) K1 [7]: 0.21 ng/mL"
